Laboratory results: patent publication US20200181284A1, “EPIGENETIC INHIBITORS FOR SENSITIZING HEMATOLOGIC OR OTHER MALIGNANCIES TO GLUCOCORTICOID THERAPY” (UNIVERSITY OF SOUTHERN CALIFORNIA, priority 2017, published 2020)

Experiments:
[1] = test system: LAX7R and LAX56 primary human B-ALL cells; assay: Survival of primary B-ALL cells co-cultured with OP-9 feeder cells (Annexin V/7AAD); type: cell-based
Protocol: Primary ALL cells (LAX7R and LAX56) were established from mouse xenografts derived from patient samples (Adam et al., 2017; Hsieh et al., 2013). They were cultured in 24 well tissue-culture plates on irradiated OP-9 cells with growth medium containing MEM-α with 20% heat-inactivated fetal bovine serum, and 100 IU/ml penicillin and 100 μg/ml streptomycin. On day 3 and day 5 after the addition of drugs, ALL cells were collected, and apoptosis was assessed using PE Annexin V Apoptosis Detection Kit with 7-AAD.
As shown FIGS. 41A-1, 41A-2, 41B-1, and 41B-2, LAX7R (FIGS. 41A-1 and 41A-2) or LAX56 (FIGS. 41B-1 and 41B-2) primary human B-ALL cells were co-cultured with OP-9 feeder cells for 3 days (left) or 5 days (right) in the presence of the indicated drugs, and cell survival was determined by staining with Annexin/7AAD. p-value was calculated using a paired t-test, and different symbols were used to indicate p-values between different groups.+indicates statistical significance (+p≤0.05, ++p≤0.01 and + + + p≤0.001) between Dexamethasone or AZD2811 treated group and DMSO control group; # indicates statistical significance (#p≤0.05, ##p≤0.01 and # # # p≤0.001) between AZD2811+Dexamethasone combination group and AZD2811 group; * indicates statistical difference (*p≤0.05, **p≤0.01, * * *p≤0.001) between combination group and respective Dexamethasone treated groups. Values shown are mean and SD for 3 biological replicates, which are representative of 3 independent experiments.

EHMT2 phosphorylation = assay: Phosphorylation of EHMT2 in NALM-6 cells (pan ph-T immunoprecipitation, EHMT2 immunoblot); type: cell-based, human; conditions: NALM-6, 16 nM AZD2811, 24 h
Protocol: (§1) Cells were treated as indicated, and cell extracts were prepared in RIPA buffer ([…] Tris-HCl, pH 8, 150 mM NaCL, 1 mM EDTA, 1% NP-40, and 0.25% deoxycholate) supplemented with protease inhibitor tablets (Roche Molecular Biochemicals) and phosphatase inhibitors (1 mM NaF, 1 mM Na3VO4, and 1 mM β-glycerophosphate). Protein extracts were incubated overnight at 4° C. with shaking with 1 μg of antibodies against EHMT2 (Sigma G6919), EHMT1 (Millipore 09-078), or pan phospho-threonine (Millipore AB1607). Protein A/G plus agarose beads (Santa Cruz sc-2003) were added, and the mixture was incubated 2 h at 4° C. The immunoprecipitates were separated on SDS-PAGE. […]
FIGS. 48A, 48B, 48C, 48D, 48E, and 48F show the effect of AURKB inhibitors on EHMT2 phosphorylation and dex-induced cell death. […] In each condition, the value measured with dex was normalized to the fluorescence value measured with ethanol. Percentage of survival is shown as the mean±SEM of 4 independent experiments and p-values for individual dex concentrations were calculated using a paired t-test. *p≤0.05, **p≤0.01, * * *p≤0.001. […] EC50s were calculated as the concentration at which half the cells remained alive, compare to vehicle controls. Error bars depict the SEM of 4 independent experiments and p-value was calculated to compare ZM treatment to DMSO using a paired t-test **p≤0.01, * * *p≤0.001. […]

[2] = test system: GR target genes in NALM6 cells; assay: RT-qPCR of GR target genes in NALM6 cells; type: cell-based, human; conditions: NALM6, 16 nM AZD2811 24 h, then 100 nM dex 8 h
Protocol: RNA was isolated using TRIzol (Invitrogen) according to the manufacturer's instructions. Reverse transcription reaction was performed using Superscript III (ThermoFisher) according to specifications with 1 μg of total RNA as template. Quantitative PCR amplification of the resulting cDNA was performed on a Roche LightCycler 480 using SYBR green I master mix (Roche). mRNA levels were normalized to the level of b-actin mRNA.
(§2) FIGS. 40A, 40B, 40C, 40D-1, 40D-2, 40D-3, and 40D-4 show Aurora kinase B inhibitors sensitizing NALM6 cells to GC-induced cell death. As shown in FIGS. 40A and 40B, NALM6 cells were treated with the indicated dex concentration in addition to 0.75 μM ZM447439 (FIG. 40A), 16 nM AZD2811 (FIG. 40B), or equivalent volume of vehicle DMSO for 72 h, and cell survival was measured by a fluorescence metabolic assay. In each condition, the value measured with dex was normalized to the fluorescence value measured with ethanol. Percentage of survival is shown as the mean±SEM of 4 independent experiments and p-values for individual dex concentrations were calculated using a paired t-test. *p≤0.05, **p≤0.01, * * *p≤0.001. F-test comparing the two curves: p≤0.001. Insets show the EC50s that were calculated as the concentration at which half the cells remained alive, compare to vehicle controls. Error bars depict the SEM of 4 independent experiments and p-values were calculated to compare AURKB inhibitor treatment to DMSO using a paired t-test ** p≤0.01, * * *p≤0.001. […] The indicated proteins were then examined by immunoblot. As shown in FIGS. 40D-1, 40D-2, 40D-3, and 40D-4, NALM6 cells pre-treated with AZD2811 (16 nM) or DMSO for 24 h, were then treated for 8 h with 100 nM dex or ethanol. mRNA levels for the indicated GR target genes were measured by RT-qPCR and normalized to β-actin mRNA levels.
FIGS. 54A, 54B, and 54C highlight the GR Target genes that require G9a and GLP as coactivators.

NALM6 cells [3] = assay: Immunoblot of apoptosis markers (cleaved caspase 3, caspase 7, PARP1) in NALM6 cells; type: cell-based, human; conditions: 16 nM AZD2811 pretreatment 24 h, then 100 nM dex 24 h
Protocol: as §1
FIGS. 40A, 40B, 40C, 40D-1, 40D-2, 40D-3, and 40D-4 show Aurora kinase B inhibitors sensitizing NALM6 cells to GC-induced cell death. As shown in FIGS. 40A and 40B, NALM6 cells were treated with the indicated dex concentration in addition to 0.75 μM ZM447439 (FIG. 40A), 16 nM AZD2811 (FIG. 40B), or equivalent volume of vehicle DMSO for 72 h, and cell survival was measured by a fluorescence metabolic assay. In each condition, the value measured with dex was normalized to the fluorescence value measured with ethanol. Percentage of survival is shown as the mean±SEM of 4 independent experiments and p-values for individual dex concentrations were calculated using a paired t-test. *p≤0.05, **p≤0.01, * * *p≤0.001. […]

NALM6 cells [4] = assay: Cell death assay (Presto Blue, 72 h) with dex plus inhibitor; type: cell-based, human
Protocol: Cells were plated in CellStar low evaporation lid 96-well round-bottom plate at a density of 100,000 cells/ml. Directly after plating, cells were treated in triplicate with serial dilutions of dexamethasone or vehicle control (0.1% ethanol). After 72 h, cell viability of each well was analyzed in duplicate using the Presto Blue Assay Reagent (Life Technologies). Fluorescence was measured and data were analyzed with Prism6 software.
as §2
FIGS. 48A, 48B, 48C, 48D, 48E, and 48F show the effect of AURKB inhibitors on EHMT2 phosphorylation and dex-induced cell death. […] In each condition, the value measured with dex was normalized to the fluorescence value measured with ethanol. Percentage of survival is shown as the mean±SEM of 4 independent experiments and p-values for individual dex concentrations were calculated using a paired t-test. *p≤0.05, **p≤0.01, * * *p≤0.001. F-test comparing the two curves: p≤0.001. EC50s were calculated as the concentration at which half the cells remained alive, compare to vehicle controls. Error bars depict the SEM of 4 independent experiments and p-value was calculated to compare ZM treatment to DMSO using a paired t-test **p≤0.01, * * *p≤0.001. […] EC50s were calculated as the concentration at which half the cells remained alive, compare to vehicle controls. Error bars depict the SEM of 4 independent experiments and p-value was calculated to compare alisertib treatment to DMSO using a paired t-test. […] (E-F) RCH-ACV cells were treated with the indicated dex concentration in addition to 0.75 μM ZM447439 (FIG. 48E), 16 nM AZD2811 (FIG. 48F), or DMSO for 72 h, and cell survival was measured by a fluorescence metabolic assay. In each condition, the value measured with dex was normalized to the fluorescence value measured with ethanol. Percentage of survival is shown as the mean±SEM of 5 individual experiments and the p-value for each dex concentration was calculated using a paired t-test. *p≤0.05, **p≤0.01, * * *p≤0.001. F-test comparing the two curves: p≤0.001.
FIGS. 55A, 55B, and 55C show JIB-04 enhances GC-induced death of B-ALL cell line NALM6.

G9a methylation = G9a methylation level in NALM6 cells treated with KDM inhibitors; type: cell-based, human
Excerpt: There are two distinct families of KDM with distinct catalytic mechanisms (FIG. 50B). We tested one inhibitor for each family: OG-L002 inhibits the two members of the LSD family of KDM, and JIB-04 inhibits several members of the large JmjC family of KDM, including members of the KDM2, KDM3, and KDM4 subfamilies. We propose that there is an equilibrium between the enzymes that methylate G9a and GLP (in this case they methylate themselves) and the KDM enzymes to maintain a moderate level of G9a/GLP methylation (FIGS. 50C-1, 50C-2), and that inhibition of the KDMs that normally demethylate G9a and GLP (currently unknown) will increase the level of G9a/GLP methylation and thereby enhance the coactivator activity of G9a/GLP, the GC activation of the cell death genes, and GC-induced cell death in B-ALL cells. Thus, as a first step to identify the G9a/GLP-specific demethylases, we treated NALM6 cells with the two inhibitors named above. OG-L002 had no effect on the level of G9a methylation, but JIB-04 increased the level of G9a methylation in NALM6 cells (FIG. 50D).

Structure (SMILES)	cell survival compared with the vehicle-treated control ([1]; 16 nM AZD2811 alone, 3 or 5 days)	cell survival ([1]; 16 nM AZD2811 in combination with 0.1 nM dex, 3 or 5 days)	dex sensitivity of the two dex-resistant primary B-ALL lines ([1]; 16 nM AZD2811 with dex)	phosphorylation of EHMT2 (EHMT2 phosphorylation)	dex-induced expression of dex-effector genes that utilize EHMT2, EHMT1 and CBX3 [2]	cleavage of apoptotic markers in dex-treated NALM6 (NALM6 cells [3])	dex-induced cell death (NALM6 cells [4]; NALM6, 16 nM AZD2811, 72 h)	GC-induced death of NALM6 cells (NALM6 cells [4]; 72 hours with various dex concentrations plus KDM inhibitor)	level of G9a methylation (G9a methylation)
CCN(CCO)CCCOc1ccc2c(Nc3cc(CC(=O)Nc4cccc(F)c4)[nH]n3)ncnc2c1 [AZD2811]	70-80%	10-40%	dramatically enhanced	decreased	enhanced	increased	enhanced	–	–
N[C@H]1C[C@@H]1c1ccc(-c2cccc(O)c2)cc1 [OG-L002, 3-[4-[(1R,2S)-2-aminocyclopropyl]phenyl]phenol]	–	–	–	–	–	–	–	no effect	no effect
